Measurements from US7253187B2, “Heterocyclic inhibitors of ERK2 and uses thereof” (Vertex Pharmaceuticals Incorporated, priority 2001, dated 2007).

Target: ERK2 (Homo sapiens, UniProt P28482)
Assay: ERK2 inhibition assay (spectrophotometric coupled-enzyme assay)
Format: biochemical
Details: ERK2 Inhibitory Activity (Ki class D-F)
Method: The IC50 was evaluated from the rate data as a function of inhibitor concentration. […] The compound numbers correspond to the compound numbers in Table 1.

ERK2, sequence (P28482 whole entry): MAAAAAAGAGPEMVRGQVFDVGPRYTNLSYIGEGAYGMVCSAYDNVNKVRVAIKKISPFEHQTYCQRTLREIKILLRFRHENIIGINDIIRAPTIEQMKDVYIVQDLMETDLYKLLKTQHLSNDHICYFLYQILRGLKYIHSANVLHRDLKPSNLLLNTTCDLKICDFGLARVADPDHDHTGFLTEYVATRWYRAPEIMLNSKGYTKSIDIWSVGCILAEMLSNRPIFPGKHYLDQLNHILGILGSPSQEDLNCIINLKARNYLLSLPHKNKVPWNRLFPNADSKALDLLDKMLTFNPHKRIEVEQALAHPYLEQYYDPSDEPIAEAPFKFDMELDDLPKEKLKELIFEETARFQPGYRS

Compound	Ki [nM]
Cc1cnc(Nc2nc(N3CCCCC3)nc3ccccc23)nc1-c1c[nH]c(C(=O)NCc2ccccc2)c1 [III-a-133, 4-[5-Methyl-2-(2-piperidin-1-yl-quinazolin-4-ylamino)-pyrimidin-4-yl]-1H-pyrrole-2-carboxylic acid benzylamide]	> 1000

Same assay, conditions: read-out: ERK2 Inhibitory Activity (Ki class D-F)

Compound	Ki [nM]
CCN(CC)CCNc1ncc(C)c(-c2c[nH]c(C(=O)NCc3ccc(F)c(F)c3)c2)n1 [III-a-132, 4-[2-(2-Diethylamino-ethylamino)-5-methyl-pyrimidin-4-yl]-1H-pyrrole-2-carboxylic acid 3i4-difluoro-benzylamide]	> 1000
CCNc1ncc(C)c(-c2c[nH]c(C(=O)NC3CC3)c2)n1 [III-a-114, 4-(2-Ethylamino-5-methyl-pyrimidin-4-yl)-1H-pyrrole-2-carboxylic acid cyclopropylamide]	> 1000
CCNc1ncc(C)c(-c2c[nH]c(C(=O)NC(C(C)=O)c3ccccc3)c2)n1 (stereo not shown) [III-a-197, 4-(2-Ethylamino-5-methyl-pyrimidin-4-yl)-1H-pyrrole-2-carboxylic acid (2-oxo-1-phenyl-propyl)-amide]	> 1000
Cc1cnc(NC(CO)CO)nc1-c1c[nH]c(C(=O)NC(CO)c2ccccc2)c1 (stereo not shown) [III-a-235, 4-[2-(2-Hydroxy-1-hydroxymethyl-ethylamino)-5-methyl-pyrimidin-4-yl]-1H-pyrrole-2-carboxylic acid (2-hydroxy-1-phenyl-ethyl)-amide]	< 100
CC(C(O)c1ccccc1)N(C)C(=O)c1cc(-c2ccnc(N)n2)c[nH]1 (stereo not shown) [III-a-180, 4-(2-Amino-pyrimidin-4-yl)-1H-pyrrole-2-carboxylic acid (2-hydroxy-1-methyl-2-phenyl-ethyl)-methyl-amide]	> 1000
CCNc1ncc(C)c(-c2c[nH]c(C(=O)NC(CO)C(O)c3ccccc3)c2)n1 (stereo not shown) [III-a-171, 4-(2-Ethylamino-5-methyl-pyrimidin-4-yl)-1H-pyrrole-2-carboxylic acid (2-hydroxy-1-hydroxymethyl-2-phenyl-ethyl)-amide]	> 1000
Cc1cnc(NOCC2CC2)nc1-c1c[nH]c(C(=O)NC(CO)c2ccccc2)c1 (stereo not shown) [III-a-220, 4-(2-Cyclopropylmethoxyamino-5-methyl-pyrimidin-4-yl)-1H-pyrrole-2-carboxylic acid (2-hydroxy-1-phenyl-ethyl)-amide]	< 100
Cc1cnc(N)nc1-c1c[nH]c(C(=O)NCCc2cccnc2)c1 [III-a-107, 4-(2-Amino-5-methyl-pyrimidin-4-yl)-1H-pyrrole-2-carboxylic acid (2-pyridin-3′-yl-ethyl)-amide]	> 1000
CCNc1ncc(C)c(-c2c[nH]c(C(=O)NC(C)C(O)c3ccccc3)c2)n1 (stereo not shown) [III-a-168, 4-(2-Ethylamino-5-methyl-pyrimidin-4-yl)-1H-pyrrole-2-carboxylic acid (2-hydroxy-1-methyl-2-phenyl-ethyl)-amide]	> 1000
CCNc1ncc(C)c(-c2c[nH]c(C(=O)NC(CO)C(O)c3ccccc3)c2)n1 (stereo not shown) [III-a-170, 4-(2-Ethylamino-5-methyl-pyrimidin-4-yl)-1H-pyrrole-2-carboxylic acid (2-hydroxy-1-hydroxymethyl-2-phenyl-ethyl)-amide]	> 1000
O=C(NCc1ccc2c(c1)OCO2)c1cc(-c2nc(Nc3ccccc3)ncc2-c2cc(Cl)cc(Cl)c2)c[nH]1 [III-a-103, 4-[5-(3,5-Dichloro-phenyl)-2-phenylamino-pyrimidin-4-yl]-1H-pyrrole-2-carboxylic acid (benzo[1,3]dioxol-5-ylmethyl)-amide]	> 1000
Cc1cc(Nc2ncc(C)c(-c3c[nH]c(C(=O)NC(CO)c4ccccc4)c3)n2)no1 (stereo not shown) [III-a-229, 4-[5-Methyl-2-(5-methyl-isoxazol-3-ylamino)-pyrimidin-4-yl]-1H-pyrrole-2-carboxylic acid (2-hydroxy-1-phenyl-ethyl)-amide]	100 to 1000
Cc1cnc(NC2CC2C)nc1-c1c[nH]c(C(=O)NC(CO)c2ccccc2)c1 (stereo not shown) [III-a-237, 4-[5-Methyl-2-(2-methyl-cyclopropylamino)-pyrimidin-4-yl]-1H-pyrrole-2-carboxylic acid (2-hydroxy-1-phenyl-ethyl)-amide]	< 100

The next lines start with the values.

Ki [nM]	Compound
< 100	Cc1cnc(NCc2cccnc2)nc1-c1c[nH]c(C(=O)NC(CO)c2ccccc2)c1 (stereo not shown) [III-a-219, 4-{5-Methyl-2-[(pyridin-3-ylmethyl)-amino]-pyrimidin-4-yl}-1H-pyrrole-2-carboxylic acid (2-hydroxy-1-phenyl-ethyl)-amide]
100 to 1000	CCNc1ncc(C)c(-c2c[nH]c(C(=O)NC(CO)c3ccccc3F)c2)n1 (stereo not shown) [III-a-192, 4-(2-Ethylamino-5-methyl-pyrimidin-4-yl)-1H-pyrrole-2-carboxylic acid [1-(2-fluoro-phenyl)-2-hydroxy-ethyl]-amide]
100 to 1000	COCc1cnc(N)nc1-c1c[nH]c(C(=O)N[C@H](CO)c2ccccc2)c1 [III-a-161, 4-(2-Amino-5-methoxymethyl-pyrimidin-4-yl)-1H-pyrrole-2-carboxylic acid (2-hydroxy-1-phenyl-ethyl)-amide]
100 to 1000	CCNc1ncc(C)c(-c2c[nH]c(C(=O)NCC(O)c3ccccc3)c2)n1 (stereo not shown) [III-a-169, 4-(2-Ethylamino-5-methyl-pyrimidin-4-yl)-1H-pyrrole-2-carboxylic acid (2-hydroxy-2-phenyl-ethyl)-amide]
100 to 1000	Nc1ncc(-c2cc(F)cc(C(F)(F)F)c2)c(-c2c[nH]c(C(=O)NC(CO)c3ccccc3)c2)n1 (stereo not shown) [III-a-105, 4-[2-Amino-5-(3-fluoro-5-trifluoromethyl-phenyl)-pyrimidin-4-yl]-1H-pyrrole-2-carboxylic acid (2-hydroxy-1-phenyl-ethyl)-amide]
< 100	Cc1cnc(Nc2ccon2)nc1-c1c[nH]c(C(=O)NC(CO)c2ccccc2)c1 (stereo not shown) [III-a-221, 4-[2-(Isoxazol-3-ylamino)-5-methyl-pyrimidin-4-yl]-1H-pyrrole-2-carboxylic acid (2-hydroxy-1-phenyl-ethyl)-amide]
100 to 1000	Cc1cnc(Nc2ccccc2)nc1-c1c[nH]c(C(=O)NCCN)c1 [III-a-120, 4-(5-Methyl-2-phenylamino-pyrimidin-4-yl)-1H-pyrrole-2-carboxylic acid (2-amino-ethyl)-amide]
< 100	CCCNc1ncc(C)c(-c2c[nH]c(C(=O)NC(CO)c3ccccc3)c2)n1 (stereo not shown) [III-a-163, 4-(5-Methyl-2-propylamino-pyrimidin-4-yl)-1H-pyrrole-2-carboxylic acid (2-hydroxy-1-phenyl-ethyl)-amide]
100 to 1000	COCc1cnc(Nc2ccccc2)nc1-c1c[nH]c(C(=O)NC(CO)c2ccccc2)c1 (stereo not shown) [III-a-160, 4-(5-Methoxymethyl-2-phenylamino-pyrimidin-4-yl)-1H-pyrrole-2-carboxylic acid (2-hydroxy-1-phenyl-ethyl)-amide]
< 100	CCONc1ncc(C)c(-c2c[nH]c(C(=O)N[C@H](CO)c3ccccc3)c2)n1 [III-a-195, 4-(2-Ethoxyamino-5-methyl-pyrimidin-4-yl)-1H-pyrrole-2-carboxylic acid (2-hydroxy-1-phenyl-ethyl)-amide]
< 100	CCC(CO)Nc1ncc(C)c(-c2c[nH]c(C(=O)NC(CO)c3cccc(C)c3)c2)n1 (stereo not shown) [III-a-234, 4-[2-(1-Hydroxymethyl-propylamino)-5-methyl-pyrimidin-4-yl]-1H-pyrrole-2-carboxylic acid (2-hydroxy-1-m-tolyl-ethyl)-amide]
100 to 1000	CCOC(=O)NNc1ncc(C)c(-c2c[nH]c(C(=O)N[C@H](CO)c3ccccc3)c2)n1 [III-a-218, N′-{4-[5-(2-Hydroxy-1-phenyl-ethylcarbamoyl)-1H-pyrrol-3-yl]-5-methyl-pyrimidin-2-yl}-hydrazinecarboxylic acid ethyl ester]
< 100	CCC(CO)Nc1ncc(C)c(-c2c[nH]c(C(=O)NC(CO)c3ccccc3)c2)n1 (stereo not shown) [III-a-236, 4-[2-(1-Hydroxymethyl-propylamino)-5-methyl-pyrimidin-4-yl]-1H-pyrrole-2-carboxylic acid (2-hydroxy-1-phenyl-ethyl)-amide]
< 100	Cc1cnc(Nc2ccccc2)nc1-c1c[nH]c(C(=O)NCCCc2ccccc2)c1 [III-a-112, 4-(5-Methyl-2-phenylamino-pyrimidin-4-yl)-1H-pyrrole-2-carboxylic acid (3-phenyl-propyl)-amide]
< 100	Cc1cnc(NN(C)C)nc1-c1c[nH]c(C(=O)N[C@H](CO)c2ccccc2)c1 [III-a-226, 4-[2-(N′,N′-Dimethyl-hydrazino)-5-methyl-pyrimidin-4-yl]-1H-pyrrole-2-carboxylic acid (2-hydroxy-1-(S)-phenyl-ethyl)-amide]
< 100	CCCNC(=O)c1cc(-c2nc(Nc3ccccc3)ncc2C)c[nH]1 [III-a-111, 4-(5-Methyl-2-phenylamino-pyrimidin-4-yl)-1H-pyrrole-2-carboxylic acid propylamide]

Target: T1, GSK-3β (AA 1–420) (Homo sapiens, UniProt P49841)
T1 construct: GSK-3β (AA 1–420)
T1 sequence (P49841 whole entry, species assumed, the tested form may be a part): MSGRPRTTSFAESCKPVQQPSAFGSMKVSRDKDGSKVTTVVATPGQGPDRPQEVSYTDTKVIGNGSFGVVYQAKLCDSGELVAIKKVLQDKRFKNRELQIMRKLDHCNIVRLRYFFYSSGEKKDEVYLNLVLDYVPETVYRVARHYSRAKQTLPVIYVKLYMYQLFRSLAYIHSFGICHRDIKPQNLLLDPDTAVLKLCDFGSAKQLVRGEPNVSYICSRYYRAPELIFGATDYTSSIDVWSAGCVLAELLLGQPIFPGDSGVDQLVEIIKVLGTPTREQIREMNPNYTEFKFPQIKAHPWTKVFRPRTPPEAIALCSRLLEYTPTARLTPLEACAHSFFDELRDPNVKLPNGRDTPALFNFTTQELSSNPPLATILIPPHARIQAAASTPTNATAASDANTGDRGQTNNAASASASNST
Assay: GSK-3 inhibition assay (coupled enzyme system)
Format: biochemical
Details: read-out: GSK3 Inhibitory Activity (Ki class)
Method: Final substrate concentrations in the assay were 20 μM ATP (Sigma Chemicals, St Louis, Mo.) and 300 μM peptide (HSSPHQS(PO3H2)EDEEE, American Peptide, Sunnyvale, Calif.). Reactions were carried out at 30° C. and 20 nM GSK-3β. Final concentrations of the components of the coupled enzyme system were 2.5 mM phosphoenolpyruvate, 300 μM NADH, 30 μg/ml pyruvate kinase and 10 μg/ml lactate dehydrogenase.
An assay stock buffer solution was prepared containing all of the reagents listed above with the exception of ATP and the test compound of interest. The assay stock buffer'solution (175 μl) was incubated in a 96 well plate with 5 μl of the test compound of interest at final concentrations spanning 0.002 μM to 30 μM at 30° C. for 10 min. […] The reaction was initiated by the addition of 20 μl of ATP (final concentration 20 μM). Rates of reaction were obtained using a Molecular Devices Spectramax plate reader (Sunnyvale, Calif.) over 10 min at 30° C. The Ki values were determined from the rate data as a function of inhibitor concentration.
The compound numbers correspond to the compound numbers in Table 1.

Ki [nM]	Compound
< 100	Cc1cnc(NN2CCOCC2)nc1-c1c[nH]c(C(=O)NC(CO)c2ccccc2)c1 (stereo not shown) [III-a-228, 4-[5-Methyl-2-(morpholin-4-ylamino)-pyrimidin-4-yl]-1H-pyrrole-2-carboxylic acid (2-hydroxy-1-phenyl-ethyl)-amide]
